Measurements from US20120184542A1, “PYRIDO PYRIMIDINES” (priority 2011, published 2012).
Read-outs that look alike come from different tables or passages of the source.

Tests used:
[1] = system: SW620 human colon cancer cells; assay: SW620 Cell Viability Assay; type: cell-based; details: Homo sapiens, SW-620, 96 h, read-out: Cellular EC50 (μM) SW620
Method: Some cells (S—) were allowed to attach for 24 hrs, serum starved for 48 hrs, and then followed with drug treatments Test Compound Solutions were Prepared in Regular Corresponding Media Supplemented with Serum 2. […] Viability Assay: This assay was performed as follows: • Transfer 50 μL of test compound solution per well from the test compound plate onto the cell plate prepared in Step #1. • Mix the plate with treated cells by pipetting up and down three times with 200 μL multi-channel pipette. • Incubate the cells in 5% CO2 incubator @ 37° C. for 4 days. • Run the CellTiter-Glo™ Luminescent Cell Viability Assay.

Human DYRK1B = biological target: T1, Human DYRK1B (Homo sapiens, UniProt Q9Y463); assay: DYRK1B Kinase TR-FRET (IMAP-Tb) Assay; type: biochemical; details: for IC50: TR-FRET (IMAP-Tb), ATP 70 μM, 37° C. 60 minutes
T1 construct: purchased Invitrogen PR8350B (former PV4649)
T1 sequence (Q9Y463 whole entry): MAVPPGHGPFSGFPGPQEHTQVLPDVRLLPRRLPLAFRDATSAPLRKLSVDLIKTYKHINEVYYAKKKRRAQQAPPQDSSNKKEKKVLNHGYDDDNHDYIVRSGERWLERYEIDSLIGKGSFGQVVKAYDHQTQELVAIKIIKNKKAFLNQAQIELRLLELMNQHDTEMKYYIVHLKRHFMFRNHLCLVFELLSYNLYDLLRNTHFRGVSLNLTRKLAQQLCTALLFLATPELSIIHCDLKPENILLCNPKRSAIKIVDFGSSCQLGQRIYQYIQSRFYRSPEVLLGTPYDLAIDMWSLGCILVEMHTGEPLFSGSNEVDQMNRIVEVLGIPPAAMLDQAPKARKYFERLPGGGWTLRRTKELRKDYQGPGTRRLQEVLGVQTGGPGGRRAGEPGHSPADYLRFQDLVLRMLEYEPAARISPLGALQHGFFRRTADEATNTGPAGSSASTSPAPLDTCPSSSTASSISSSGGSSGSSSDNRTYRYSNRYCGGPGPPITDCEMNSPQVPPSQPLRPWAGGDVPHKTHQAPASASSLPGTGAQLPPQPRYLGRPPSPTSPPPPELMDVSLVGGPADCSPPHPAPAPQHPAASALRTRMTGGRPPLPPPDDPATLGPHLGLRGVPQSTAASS

Human DYRK1A = biological target: T2, Human DYRK1A (Homo sapiens, UniProt Q13627); assay: DYRK1A Kinase TR-FRET (IMAP-Tb) Assay; type: biochemical; details: TR-FRET (IMAP-Tb); ATP 70 μM; 37° C. 60 minutes; read-out: Enzyme IC50 (μM) DYRK1A
T2 construct: purchased Invitrogen PV3997
Excerpt: The kinase TR-FRET (IMAP-Tb) assay uses a fluorescence labeled substrate peptide in the kinase reaction. Upon phosphorylation by the kinase, phosphopeptide is produced, which will be detected by the binding solution provided in IMAP TR-FRET binding kit. After the completion of the kinase reaction, the reaction will be stopped by adding the binding solution containing terbium tracer. This tracer is immobilized on the surface of the IMAP beads, which also contain metal ions on the beads that bind to the phospho-groups of the products. Thus the phosphorylated product of the reaction can enter into close proximity to the tracer, producing resonance energy transfer. Due to the long lifetime of terbium (Tb) fluorescence the detection can be run in time resolved mode, which virtually eliminates fluorescence interference from assay components or compounds.
The TR-FRET signal measurement from this assay, given as an IC50 measurement, is a measure of a test compound's ability to interfere with the phosphorylation of the peptide substrate, that is it inhibits the phosphorylation of the substrate peptide by DYRK1A, and is thus a measure of the test compound's ability to inhibit the activity of DYRK1A.
• 1. Human DYRK1A: from Invitrogen. Part #PV3997 • 2. Substrate Peptide: […] • 3. IMAP TR-FRET IPP Explorer Kit: from Molecular Devices. Part #R8157 • 4. Kinase Assay Buffer (KAB): 10 mM HEPES pH 7.0, 50 mM NaCl, 5 mM MgCl2, 1 mM DTT, 1 mM NaVO4, 200 μg/mL BSA (0.02%) • 5. Assay Plate: Remp polypropylene clear 384-well microplate. […] Detection Plate: Costa black 384-well microplate.
• 1. Transfer 1.5 μL of 20× compound solution to each well of an assay plate. • 2. Add to each well 22.5 μL of KAB Buffer. • 3. Add to each well 3 μL of the solution of DYRK1A and ATP. […] Add to each well 3 μL of the substrate peptide. The assay concentration is 1.0 μM • 5. Incubate the assay plates at 37° C. for 60 minutes. • 6. Add 18 μL of Detection Solution (1:800 diluted Progress bead stock, 1:400 diluted Tb stock, 80% Buffer A, and 20% Buffer B) into each well of detection plates. • 7. Transfer 6 μL of assay solution from the assay plate to the detection plate. • 8. Shake detection plates for 30 minutes. • 9. Read plates in Envision with wavelength set at excitation 340 nm for Tb, emission 490 nm, and […].

[2] = read-out: Enzyme IC50 (μM) DYRK1B

| SMILES | EC50 [1] [µM] | IC50 (Human DYRK1B; Enzyme IC50 (μM) DYRK1B) [µM] | IC50 (Human DYRK1B; [2]) [µM] | IC50 (Human DYRK1A) [µM] | inhibition at 10 µM (Human DYRK1B; read-out: % inhibition of DYRK1B at 10 μM test compound concentration) [%] |
| --- | --- | --- | --- | --- | --- |
| COC(=O)c1ccc(C)c(NC(=O)c2cc3cnc(OC)nc3[nH]c2=O)c1 [Example 19, 3-[(2-Methoxy-7-oxo-7,8-dihydro-pyrido[2,3-d]pyrimidine-6-carbonyl)-amino]-4-methyl-benzoic acid methyl ester] | 92.5 | 0.252 | – | – | – |
| COC(=O)c1ccc(Cl)c(NC(=O)c2cc3cnc(OC)nc3[nH]c2=O)c1 [Example 21, 4-Chloro-3-[(2-methoxy-7-oxo-7,8-dihydro-pyrido[2,3-d]pyrimidine-6-carbonyl)-amino]-benzoic acid methyl ester] | 3.34 | 0.135 | – | – | – |
| COc1ncc2cc(C(=O)Nc3cc(C(=O)NCc4ccccc4)ccc3Cl)c(=O)[nH]c2n1 [Example 31, 2-Methoxy-7-oxo-7,8-dihydro-pyrido[2,3-d]pyrimidine-6-carboxylic acid (5-benzylcarbamoyl-2-chloro-phenyl)-amide] | > 100 | 0.048 | – | – | – |
| COc1ncc2cc(C(=O)Nc3cc(C(=O)NCc4cccs4)ccc3Cl)c(=O)[nH]c2n1 [Example 57, 2-Methoxy-7-oxo-7,8-dihydro-pyrido[2,3-d]pyrimidine-6-carboxylic acid {2-chloro-5-[(thiophen-2-ylmethyl)-carbamoyl]-phenyl}-amide] | 2.41 | 0.096 | – | – | – |
| COc1ncc2cc(C(=O)Nc3cc(C(=O)NCc4ccsc4)ccc3Cl)c(=O)[nH]c2n1 [Example 58, 2-Methoxy-7-oxo-7,8-dihydro-pyrido[2,3-d]pyrimidine-6-carboxylic acid {2-chloro-5-[(thiophen-3-ylmethyl)-carbamoyl]-phenyl}-amide] | 1.73 | 0.04 | – | – | – |
| COc1ncc2cc(C(=O)Nc3cc(C(=O)NC(CN)c4ccccc4)ccc3Cl)c(=O)[nH]c2n1 (stereo not shown) [Example 72, 2-Methoxy-7-oxo-7,8-dihydro-pyrido[2,3-d]pyrimidine-6-carboxylic acid [5-(2-amino-1-phenyl-ethylcarbamoyl)-2-chloro-phenyl]-amide] | 0.828 | – | 0.00935 | – | – |
| COc1ncc2cc(C(=O)Nc3cc(C(=O)NC(CCN)c4ccccc4)ccc3Cl)c(=O)[nH]c2n1 (stereo not shown) [Example 76, 2-Methoxy-7-oxo-7,8-dihydro-pyrido[2,3-d]pyrimidine-6-carboxylic acid [5-(3-amino-1-phenyl-propylcarbamoyl)-2-chloro-phenyl]-amide] | 0.657 | – | 0.0128 | – | – |
| CNC(=O)c1ccc(Cl)c(NC(=O)c2cc3cnc(OC)nc3[nH]c2=O)c1 [Example 78, 2-Methoxy-7-oxo-7,8-dihydro-pyrido[2,3-d]pyrimidine-6-carboxylic acid (2-chloro-5-methylcarbamoyl-phenyl)-amide] | 2.52 | 0.248 | – | – | – |
| CN(C)c1ncc2cc(C(=O)Nc3cc(C(=O)NCc4cccc(Cl)c4)ccc3Cl)c(=O)[nH]c2n1 [Example 155, N-(2-Chloro-5-(3-chlorobenzylcarbamoyl)phenyl)-2-(dimethylamino)-7-oxo-7,8-dihydropyrido[2,3-d]pyrimidine-6-carboxamide] | – | – | 0.0923 | 0.0485 | – |
| C[C@@H](NC(=O)c1ccc(Cl)c(NC(=O)c2cc3cnc(N4CCOCC4)nc3[nH]c2=O)c1)c1ccccc1 [Example 156, 2-Morpholin-4-yl-7-oxo-7,8-dihydro-pyrido[2,3-d]pyrimidine-6-carboxylic acid [2-chloro-5-((R)-1-phenyl-ethylcarbamoyl)-phenyl]-amide] | – | – | 0.586 | 0.189 | – |
| C[C@H](NC(=O)c1ccc(Cl)c(NC(=O)c2cc3cnc(N4CCOCC4)nc3[nH]c2=O)c1)c1ccccc1 [Example 157, 2-Morpholin-4-yl-7-oxo-7,8-dihydro-pyrido[2,3-d]pyrimidine-6-carboxylic acid [2-chloro-5-((S)-1-phenyl-ethylcarbamoyl)-phenyl]-amide] | – | – | > 10 | > 10 | – |
| COc1ncc2cc(C(=O)Nc3cc(C(=O)N[C@@H](CCO)c4ccccc4)ccc3Cl)c(=O)[nH]c2n1 [Example 159, (S)—N-(2-Chloro-5-(3-hydroxy-1-phenylpropylcarbamoyl)phenyl)-2-methoxy-7-oxo-7,8-dihydropyrido[2,3-d]pyrimidine-6-carboxamide] | – | – | – | 3.88 | 22 |
| C[C@H](NC(=O)c1ccc(Cl)c(NC(=O)c2cc3cnc(N4CCN(C)CC4)nc3[nH]c2=O)c1)c1ccccc1 [Example 173, 2-(4-Methyl-piperazin-1-yl)-7-oxo-7,8-dihydro-pyrido[2,3-d]pyrimidine-6-carboxylic acid [2-chloro-5-((S)-1-phenyl-ethylcarbamoyl)-phenyl]-amide] | – | – | > 10 | > 10 | – |
| CN1CCN(c2ncc3cc(C(=O)Nc4cc(C(=O)NCc5cccc(F)c5)ccc4Cl)c(=O)[nH]c3n2)CC1 [Example 177, 2-(4-Methyl-piperazin-1-yl)-7-oxo-7,8-dihydro-pyrido[2,3-d]pyrimidine-6-carboxylic acid [2-chloro-5-(3-fluoro-benzylcarbamoyl)-phenyl]amide] | – | – | 0.176 | 0.0715 | – |
| CN1CCN(c2ncc3cc(C(=O)Nc4cc(C(=O)NCc5cc(F)ccc5F)ccc4Cl)c(=O)[nH]c3n2)CC1 [Example 178, 2-(4-Methyl-piperazin-1-yl)-7-oxo-7,8-dihydro-pyrido[2,3-d]pyrimidine-6-carboxylic acid [2-chloro-5-(2,5-difluoro-benzylcarbamoyl)-phenyl]amide] | – | – | 0.356 | 0.0748 | – |
| CN1CCN(c2ncc3cc(C(=O)Nc4cc(C(=O)N[C@H](CN)Cc5cccc(F)c5)ccc4Cl)c(=O)[nH]c3n2)CC1 [Example 187, 2-(4-Methyl-piperazin-1-yl)-7-oxo-7,8-dihydro-pyrido[2,3-d]pyrimidine-6-carboxylic acid {5-[(S)-1-aminomethyl-2-(3-fluoro-phenyl)-ethylcarbamoyl]-2-chloro-phenyl}-amide] | – | – | 0.202 | 0.13 | – |
| COc1ncc2cc(C(=O)Nc3cc(C(=O)NC(CN)C4CCCCC4)ccc3Cl)c(=O)[nH]c2n1 (stereo not shown) [Example 192, N-(5-(2-Amino-1-cyclohexylethylcarbamoyl)-2-chlorophenyl)-2-methoxy-7-oxo-7,8-dihydropyrido[2,3-d]pyrimidine-6-carboxamide] | – | – | 0.047 | 0.036 | – |
| COc1ncc2cc(C(=O)Nc3cc(C(=O)NC(c4ccccc4)C(F)(F)CN)ccc3Cl)c(=O)[nH]c2n1 (stereo not shown) [Example 196, N-(5-(3-amino-2,2-difluoro-1-phenylpropylcarbamoyl)-2-chlorophenyl)-2-methoxy-7-oxo-7,8-dihydropyrido[2,3-d]pyrimidine-6-carboxamide] | – | – | 0.339 | 0.175 | – |
| COc1ncc2cc(C(=O)Nc3cc(C(=O)NC(CCN)C4CCCC4)ccc3Cl)c(=O)[nH]c2n1 (stereo not shown) [Example 198, 2-Methoxy-7-oxo-7,8-dihydro-pyrido[2,3-d]pyrimidine-6-carboxylic acid [5-(3-amino-1-cyclopentyl-propylcarbamoyl)-2-chloro-phenyl]-amide] | – | – | 0.36 | 0.47 | – |
| COc1ncc2cc(C(=O)Nc3cc(C(=O)NC(CN)C4CCCC4)ccc3Cl)c(=O)[nH]c2n1 (stereo not shown) [Example 200, 2-Methoxy-7-oxo-7,8-dihydro-pyrido[2,3-d]pyrimidine-6-carboxylic acid [5-(2-amino-1-cyclopentyl-ethylcarbamoyl)-2-chloro-phenyl]-amide] | – | – | 0.47 | 0.54 | – |
